Assay results from PubChem BioAssay (NCI).
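Following 48 hours of exposure in 96-well plates, responses at five concentrations were used to interpolate endpoints linearly. At the TGI there is no net growth.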

Legend:
Experiment in all cases: NCI-60 cell line screen, 48 h
[1] = tested on: EKVX NSCLC
[2] = tested on: SW-620 colon
[3] = tested on: HT29 colon
[4] = tested on: OVCAR-8 ovarian
[5] = tested on: HCC-2998 colon
[6] = tested on: SK-OV-3 ovarian
[7] = tested on: SK-MEL-28 melanoma
[8] = tested on: 786-0 renal
[9] = tested on: SK-MEL-2 melanoma
[10] = tested on: SNB-19 CNS

| SMILES | TGI [1] | TGI [2] | TGI [3] | TGI [4] | TGI [5] | TGI [6] | TGI [7] | TGI [8] | TGI [9] | TGI [10] |
| --- | --- | --- | --- | --- | --- | --- | --- | --- | --- | --- |
| c1csc(-c2nnc(C34CC5CC(CC(C5)C3)C4)o2)c1 | > 100 µM | > 100 µM | 36.3 µM | 98.4 µM | > 100 µM | > 100 µM | > 100 µM | 60.2 µM | 55.4 µM | > 100 µM |
| Cc1ccc(C2(c3ccc(C)c(O)c3C)CCN(C)CC2)c(C)c1O | > 100 µM | > 100 µM | > 100 µM | > 100 µM | – | – | > 100 µM | > 100 µM | 75.9 µM | > 100 µM |
| C=C1[C@H](OCC(C)C)[C@@H](OC(=O)C(C)CC)[C@@H](O)C(C)(C)/C=C/[C@H](C)C(=O)[C@@]2(O)C[C@H](C)[C@H](O)[C@@H]2[C@H]1OC(=O)C(C)CC (stereo not given in full) | > 20 µM | > 20 µM | 9.87 µM | > 20 µM | > 9.84 µM | > 20 µM | > 20 µM | > 20 µM | > 15 µM | > 20 µM |
| COc1cccc(/C=N/n2c(Cc3ccc(Cl)cc3)n[nH]c2=O)c1 | > 84 µM | > 100 µM | 34 µM | 36.7 µM | > 100 µM | 81.9 µM | > 100 µM | > 71.9 µM | 58.6 µM | 67.8 µM |
| CCOC(=O)C1=CN(C(=O)c2ccccc2)CCC1Cc1ccccc1 (stereo not given) | > 100 µM | > 100 µM | 35.1 µM | 88.4 µM | 38.5 µM | > 100 µM | 63.3 µM | > 100 µM | 35.9 µM | > 100 µM |
| O=C1OC(C(O)C(O)C(O)CO)C(O)C1O (stereo not given) | > 100 µM | > 100 µM | > 100 µM | > 100 µM | > 100 µM | > 100 µM | > 100 µM | > 100 µM | > 100 µM | > 100 µM |
| Cc1[nH]c(=O)[nH]c(=O)c1C(=O)N(CCO)Cc1ccccc1 | > 100 µM | > 100 µM | > 100 µM | – | > 100 µM | > 100 µM | > 100 µM | – | > 100 µM | > 100 µM |
| C1=C[C@]2(CCC13OCCO3)COc1ccccc12 | > 100 µM | > 100 µM | 80.4 µM | > 100 µM | > 100 µM | > 100 µM | > 100 µM | > 100 µM | > 100 µM | > 100 µM |
| O=C1/C(=C2\SCC(=O)N2c2ccccc2)SC(=S)N1c1ccccc1 | 82 µM | > 100 µM | > 100 µM | > 100 µM | 62.1 µM | 55.2 µM | > 100 µM | > 100 µM | > 100 µM | > 100 µM |
| CC(C)C[C@H](NC(=O)[C@H](CCc1ccccc1)NC(=O)c1ccc2ccccc2n1)B(O)O | 3.27 µM | < 0.0338 µM | 0.144 µM | 0.86 µM | 0.149 µM | 10.2 µM | 0.055 µM | 0.706 µM | 0.0407 µM | 13.1 µM |
| O=[N+]([O-])c1cc(Cl)ccc1S(=O)(=O)c1cc(Cl)cc2c1NCCC2 | > 100 µM | > 100 µM | > 100 µM | > 100 µM | > 100 µM | > 100 µM | > 100 µM | > 100 µM | > 100 µM | > 100 µM |
| CCCN1C(=O)/C(=C(/O)C(=O)OCC)C(c2ccc(OC)c(OC)c2)C1=O (stereo not given) | > 100 µM | > 100 µM | > 100 µM | > 100 µM | > 100 µM | > 100 µM | > 100 µM | – | > 100 µM | > 100 µM |
| Cc1nc2sccn2c1C(=O)OCCOCCOCCOCCOC(=O)c1c(C)nc2sccn12 | > 100 µM | > 100 µM | > 100 µM | > 100 µM | > 100 µM | – | > 100 µM | > 100 µM | > 100 µM | > 100 µM |
| CN1N(c2ccccc2)C(=O)C2=NC=C(C#N)C(=N)C21C (stereo not given) | > 100 µM | > 100 µM | – | > 100 µM | > 100 µM | > 100 µM | > 100 µM | > 100 µM | > 100 µM | > 100 µM |
| O=[N+]([O-])c1ccc(-[n+]2ccc3ccccc3c2)c([N+](=O)[O-])c1 | 19.4 µM | – | 6.5 µM | 6.74 µM | 26.7 µM | 27.1 µM | 8.25 µM | 3.24 µM | 25.2 µM | 34.7 µM |
| C/C(NC(=O)c1ccccc1)=C(/C(=O)c1ccccc1)[C@@H]1OC(C)(C)O[C@@H]1[C@H]1COC(C)(C)O1 | 48.4 µM | 55.1 µM | 86.3 µM | > 100 µM | 87.6 µM | – | > 100 µM | 39.7 µM | 54.9 µM | > 100 µM |
| CC(CC(C)(C)[N+](C)(C)C)[N+](C)(C)C (stereo not given) | > 100 µM | > 100 µM | > 100 µM | > 100 µM | > 100 µM | > 100 µM | > 100 µM | > 100 µM | – | > 100 µM |
| COc1cc([C@@H]2c3cc4c(cc3[C@@H](Nc3ccc(NC(=O)c5cc(NC(=O)c6cc([N+](=O)[O-])cn6C)cn5C)cc3)[C@H]3COC(=O)[C@H]23)OCO4)cc(OC)c1O | > 64.2 µM | > 62.5 µM | 98.4 µM | 89.8 µM | 26.4 µM | > 55.7 µM | – | > 39.7 µM | > 100 µM | > 55.1 µM |
| CC(C)(C)OC(=O)NCCNC(=O)CN(CC(=O)O)C1CCCCC1N(CC(=O)O)CC(=O)O (stereo not given) | – | > 100 µM | > 100 µM | > 100 µM | > 100 µM | > 100 µM | > 100 µM | > 100 µM | > 100 µM | > 100 µM |
| Cc1ccc(Nc2ccc(Nc3ccc(C)cc3S(=O)(=O)O)c3c2C(=O)c2ccccc2C3=O)c(S(=O)(=O)O)c1 | > 100 µM | > 100 µM | – | > 100 µM | > 100 µM | > 100 µM | > 100 µM | > 100 µM | > 100 µM | > 100 µM |
| c1ccc(-c2nc3ccccc3n3nnnc23)cc1 | > 100 µM | > 100 µM | > 100 µM | – | > 100 µM | > 100 µM | > 100 µM | > 100 µM | > 100 µM | > 100 µM |
| CC(=O)OC1C(O)C(C)OC(OC(=O)C2CCC3C(C2)OC2(CC(OC(=O)/C=C/c4ccccc4)C(C)CO2)C32CO2)C1OC1OC(C)C(O)C(O)C1O (stereo not given) | 0.246 µM | 0.568 µM | 0.576 µM | 0.823 µM | 0.0881 µM | 0.213 µM | 0.0685 µM | – | 0.0389 µM | 0.0909 µM |
